The record followed here is the kinase profiling compilation of Christmann-Franck et al. (2016).

Assay in all cases: KINOMEscan competition binding
Holding throughout (conditions): compound 10.0 µM

Experiment [1] deals with PIK3CA (human), P42336 [I800L].
Experiment [2] deals with PIK3CA (human), P42336 [Q546K].
Experiment [3] has as its system PIK3CA (human), P42336 [E545K].
In experiment [4] the test system is KIT (human), P10721 [V559D/T670I].
For experiment [5], the system named is FLT3 (human), P36888 [ITD].
Experiment [6] relates to PIK3CA (human), P42336 [H1047Y].
Sequence of PIK3CA (human), P42336 [H1047Y] (P42336 whole entry H1047Y, looked up): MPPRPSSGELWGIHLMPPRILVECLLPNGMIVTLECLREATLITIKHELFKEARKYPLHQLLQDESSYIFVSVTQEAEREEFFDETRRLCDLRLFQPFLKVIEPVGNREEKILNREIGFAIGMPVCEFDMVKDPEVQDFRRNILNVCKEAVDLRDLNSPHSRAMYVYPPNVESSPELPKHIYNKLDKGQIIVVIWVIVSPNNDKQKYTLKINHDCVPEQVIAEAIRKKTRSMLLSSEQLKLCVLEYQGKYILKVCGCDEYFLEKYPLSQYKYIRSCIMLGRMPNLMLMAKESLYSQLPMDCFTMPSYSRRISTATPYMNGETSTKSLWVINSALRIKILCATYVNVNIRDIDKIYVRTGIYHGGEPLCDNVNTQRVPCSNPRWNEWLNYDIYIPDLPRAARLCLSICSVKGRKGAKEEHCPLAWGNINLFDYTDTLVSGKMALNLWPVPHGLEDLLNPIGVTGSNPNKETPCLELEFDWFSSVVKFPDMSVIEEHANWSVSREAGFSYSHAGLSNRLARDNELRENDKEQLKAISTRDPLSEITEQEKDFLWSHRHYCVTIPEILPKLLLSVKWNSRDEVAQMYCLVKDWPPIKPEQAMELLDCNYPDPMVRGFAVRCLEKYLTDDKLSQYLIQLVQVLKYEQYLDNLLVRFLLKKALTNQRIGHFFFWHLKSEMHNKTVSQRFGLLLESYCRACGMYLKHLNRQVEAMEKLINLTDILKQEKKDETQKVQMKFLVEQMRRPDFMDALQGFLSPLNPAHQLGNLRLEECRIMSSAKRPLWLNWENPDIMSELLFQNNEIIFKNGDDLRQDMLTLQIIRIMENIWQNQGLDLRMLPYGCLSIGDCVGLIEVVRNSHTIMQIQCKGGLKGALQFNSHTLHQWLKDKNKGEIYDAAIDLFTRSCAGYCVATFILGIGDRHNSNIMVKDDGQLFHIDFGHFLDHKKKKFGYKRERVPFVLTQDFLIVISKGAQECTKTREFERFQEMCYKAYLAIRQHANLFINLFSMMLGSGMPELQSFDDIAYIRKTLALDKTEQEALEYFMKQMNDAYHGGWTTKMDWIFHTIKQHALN
The test system of experiment [7] is ABL1 (human), P00519 [M351T].
For experiment [8], the system named is FLT3 (human), P36888 [N841I].
For experiment [9], the system named is PIK3CA (human), P42336 [C420R].
Sequence of PIK3CA (human), P42336 [C420R] (P42336 whole entry C420R, looked up): as the sequence (P42336 whole entry H1047Y, looked up) above, with C420R, Y1047H counted along it
The test system of experiment [10] is KIT (human), P10721 [V559D].
Sequence of KIT (human), P10721 [V559D] (P10721 whole entry V559D, looked up): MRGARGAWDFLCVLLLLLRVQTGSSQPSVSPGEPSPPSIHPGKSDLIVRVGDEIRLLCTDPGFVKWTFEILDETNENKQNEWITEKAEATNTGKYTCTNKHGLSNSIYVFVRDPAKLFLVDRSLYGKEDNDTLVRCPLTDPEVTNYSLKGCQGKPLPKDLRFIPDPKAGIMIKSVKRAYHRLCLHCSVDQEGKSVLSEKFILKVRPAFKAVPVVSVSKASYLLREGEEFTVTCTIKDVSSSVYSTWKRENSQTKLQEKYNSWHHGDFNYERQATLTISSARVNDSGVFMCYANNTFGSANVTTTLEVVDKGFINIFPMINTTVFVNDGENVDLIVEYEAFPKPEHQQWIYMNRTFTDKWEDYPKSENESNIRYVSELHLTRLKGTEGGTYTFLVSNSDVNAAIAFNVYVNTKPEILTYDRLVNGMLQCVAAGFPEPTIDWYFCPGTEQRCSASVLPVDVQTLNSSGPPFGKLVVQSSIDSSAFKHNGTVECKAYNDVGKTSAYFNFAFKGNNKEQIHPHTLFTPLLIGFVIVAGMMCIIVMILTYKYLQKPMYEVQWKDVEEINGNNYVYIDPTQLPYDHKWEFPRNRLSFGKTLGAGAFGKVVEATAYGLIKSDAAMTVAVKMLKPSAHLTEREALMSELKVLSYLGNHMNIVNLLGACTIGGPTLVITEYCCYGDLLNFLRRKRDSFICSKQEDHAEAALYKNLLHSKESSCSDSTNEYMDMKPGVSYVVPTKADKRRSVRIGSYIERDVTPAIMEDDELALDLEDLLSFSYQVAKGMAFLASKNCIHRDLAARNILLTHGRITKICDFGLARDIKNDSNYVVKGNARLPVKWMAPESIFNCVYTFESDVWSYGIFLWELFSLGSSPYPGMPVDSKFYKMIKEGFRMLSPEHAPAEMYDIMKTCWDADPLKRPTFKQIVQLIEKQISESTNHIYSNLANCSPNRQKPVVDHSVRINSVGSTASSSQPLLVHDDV
The subject of experiment [11] is KIT (human), P10721 [D816V].
Experiment [12] has as its system EIF2AK4 KD2 (human), Q9P2K8 [S808G].
Experiment [13] has as its system FLT3 (human), P36888 [K663Q].
The subject of experiment [14] is ABL1 (human), P00519 [T315I].
In experiment [15] the test system is PIK3CA (human), P42336 [E545A].
Sequence of PIK3CA (human), P42336 [E545A] (P42336 whole entry E545A, looked up): as the sequence (P42336 whole entry H1047Y, looked up) above, with E545A, Y1047H counted along it
The subject of experiment [16] is ABL1 (human), P00519 [Q252H].

Sequence of PIK3CA (human), P42336 [I800L] (P42336 whole entry I800L, looked up): as the sequence (P42336 whole entry H1047Y, looked up) above, with I800L, Y1047H counted along it
Sequence of KIT (human), P10721 [D816V] (P10721 whole entry D816V, looked up): as the sequence (P10721 whole entry V559D, looked up) above, with D559V, D816V counted along it
Sequence of KIT (human), P10721 [V559D/T670I] (P10721 whole entry V559D/T670I, looked up): as the sequence (P10721 whole entry V559D, looked up) above, with T670I counted along it
Sequence of EIF2AK4 KD2 (human), Q9P2K8 [S808G] (Q9P2K8 whole entry S808G, looked up): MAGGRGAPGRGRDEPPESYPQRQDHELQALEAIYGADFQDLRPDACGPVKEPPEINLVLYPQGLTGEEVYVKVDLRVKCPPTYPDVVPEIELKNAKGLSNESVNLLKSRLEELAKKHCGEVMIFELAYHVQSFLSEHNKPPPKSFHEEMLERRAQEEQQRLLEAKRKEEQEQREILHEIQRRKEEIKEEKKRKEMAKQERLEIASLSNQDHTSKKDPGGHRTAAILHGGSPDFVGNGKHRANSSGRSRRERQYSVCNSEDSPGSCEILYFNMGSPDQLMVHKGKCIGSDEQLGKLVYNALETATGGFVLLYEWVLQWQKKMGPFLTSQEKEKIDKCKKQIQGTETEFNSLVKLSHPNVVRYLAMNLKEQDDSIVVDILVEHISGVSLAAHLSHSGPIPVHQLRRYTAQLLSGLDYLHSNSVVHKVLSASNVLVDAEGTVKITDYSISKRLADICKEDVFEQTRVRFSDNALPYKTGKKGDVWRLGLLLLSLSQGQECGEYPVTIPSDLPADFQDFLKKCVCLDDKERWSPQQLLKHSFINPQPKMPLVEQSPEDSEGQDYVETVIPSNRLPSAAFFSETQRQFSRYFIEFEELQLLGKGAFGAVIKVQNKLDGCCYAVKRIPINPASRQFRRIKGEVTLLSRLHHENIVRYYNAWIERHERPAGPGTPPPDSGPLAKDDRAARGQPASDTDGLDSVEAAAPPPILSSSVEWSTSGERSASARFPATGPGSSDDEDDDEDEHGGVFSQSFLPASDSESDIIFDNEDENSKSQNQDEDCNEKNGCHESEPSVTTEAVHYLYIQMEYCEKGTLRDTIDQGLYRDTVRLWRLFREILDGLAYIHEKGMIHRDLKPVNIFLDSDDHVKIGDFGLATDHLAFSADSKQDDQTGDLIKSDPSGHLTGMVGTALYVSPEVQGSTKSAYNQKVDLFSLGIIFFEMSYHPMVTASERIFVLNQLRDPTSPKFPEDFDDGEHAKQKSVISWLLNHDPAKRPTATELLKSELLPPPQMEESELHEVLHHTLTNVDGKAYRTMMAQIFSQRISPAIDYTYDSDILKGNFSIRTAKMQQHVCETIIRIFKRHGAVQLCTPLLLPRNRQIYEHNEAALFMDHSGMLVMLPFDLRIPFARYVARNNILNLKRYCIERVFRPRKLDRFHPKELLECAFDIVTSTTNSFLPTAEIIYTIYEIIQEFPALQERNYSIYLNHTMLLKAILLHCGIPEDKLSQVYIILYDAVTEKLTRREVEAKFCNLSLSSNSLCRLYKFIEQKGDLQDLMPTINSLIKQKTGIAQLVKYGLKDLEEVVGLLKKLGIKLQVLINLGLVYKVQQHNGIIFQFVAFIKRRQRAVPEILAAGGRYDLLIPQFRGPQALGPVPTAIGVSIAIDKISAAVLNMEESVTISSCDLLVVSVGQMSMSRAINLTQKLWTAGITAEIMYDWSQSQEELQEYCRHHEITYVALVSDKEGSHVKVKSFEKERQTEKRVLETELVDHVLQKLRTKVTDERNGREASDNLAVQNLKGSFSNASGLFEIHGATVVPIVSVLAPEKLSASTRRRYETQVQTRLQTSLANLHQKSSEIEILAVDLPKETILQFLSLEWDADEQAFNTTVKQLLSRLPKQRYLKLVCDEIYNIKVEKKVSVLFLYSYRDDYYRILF
Sequence of PIK3CA (human), P42336 [E545K] (P42336 whole entry E545K, looked up): as the sequence (P42336 whole entry H1047Y, looked up) above, with E545K, Y1047H counted along it
Sequence of PIK3CA (human), P42336 [Q546K] (P42336 whole entry Q546K, looked up): as the sequence (P42336 whole entry H1047Y, looked up) above, with Q546K, Y1047H counted along it

As to `CCN(CCO)CCCOc1ccc2c(Nc3cc(CC(=O)Nc4cccc(F)c4)[nH]n3)ncnc2c1`, the kinase still bound, per cent of control in experiment [1] is 100%; in experiment [2], 15%; in experiment [3], 100%; in experiment [4], 0%; in [5], 2.5%; in [6], 30%. For the same compound, the kinase still bound, per cent of control in experiment [7] is 39%; in experiment [8], 0.15%; in experiment [9] it was 72%; in experiment [10], 0%; in experiment [11], 23%; in experiment [12], 62%. In addition, the kinase still bound, per cent of control in [13] was 1%; in experiment [14] it was 0.6%; in experiment [15] it was 31%; in [16], 32%.
